Laboratory results published in a compilation of properties of binary mixtures (doi:10.1016/j.jct.2017.12.009).

Assay: xn = mol fraction of the nth substance listed
Details: 101 kPa

CO + CCCC[N+]1(C)CCCC1.O=S(=O)([O-])C(F)(F)F
x2 = 0
Details | speed of sound [m/s]
278.15 K | 1169
288.15 K | 1135

CCCC[N+]1(C)CCCC1.O=S(=O)([O-])C(F)(F)F + CO
speed of sound [m/s]
Details | 278.15 K | 288.15 K | 298.15 K | 308.15 K | 318.15 K
x1 = 0.0501 | 1228 | 1198 | 1168 | 1138 | 1110
x1 = 0.1004 | 1274 | – | – | 1190 | 1163
x1 = 0.1503 | 1311 | – | 1257 | 1231 | 1205
x1 = 0.2002 | – | 1316 | – | 1264 | 1239
x1 = 0.3002 | 1389 | 1363 | 1338 | 1313 | 1289
x1 = 0.3996 | 1421 | 1396 | 1371 | – | 1324
x1 = 0.4998 | 1445 | 1420 | 1396 | 1372 | 1349
x1 = 0.6006 | 1463 | 1439 | 1415 | – | 1368
x1 = 0.7015 | 1478 | 1453 | 1429 | 1406 | 1383
x1 = 0.8013 | 1490 | 1465 | – | 1418 | –
x1 = 0.8427 | 1495 | 1470 | 1446 | 1423 | 1400
x1 = 0.9008 | 1501 | 1476 | 1452 | 1429 | 1406
x1 = 0.9514 | – | 1480 | 1456 | 1433 | 1411
x1 = 1 | 1513 | – | 1461 | 1438 | 1415
